Experimental data taken from patent US9228175B2, “Genes encoding a novel type of lysophophatidylcholine acyltransferases and their use to increase triacylglycerol production and/or modify fatty acid composition” (National Research Counsel of Canada, priority 2006, dated 2016).

Columns and labels:
Assay type in all cases: biochemical
AtLPCAT1 = target: T1, AtLPCAT1 (Arabidopsis thaliana, UniProt F4IDU4); assay: Zn^2+ sensitivity of AtLPCAT1, in vitro LPCAT assay; settings: increasing ZnCl2; 25 μM palmitoyl-LPC, 25 μM stearyl-CoA, 20 μg microsomal protein, pH 7.4
T1 construct: made in house; host or cells: S. cerevisiae YOR175c deletion strain BY02431 (lca1Δ), pYES2.1 TOPO, galactose induction; microsomal protein
T1 sequence (F4IDU4 1-462): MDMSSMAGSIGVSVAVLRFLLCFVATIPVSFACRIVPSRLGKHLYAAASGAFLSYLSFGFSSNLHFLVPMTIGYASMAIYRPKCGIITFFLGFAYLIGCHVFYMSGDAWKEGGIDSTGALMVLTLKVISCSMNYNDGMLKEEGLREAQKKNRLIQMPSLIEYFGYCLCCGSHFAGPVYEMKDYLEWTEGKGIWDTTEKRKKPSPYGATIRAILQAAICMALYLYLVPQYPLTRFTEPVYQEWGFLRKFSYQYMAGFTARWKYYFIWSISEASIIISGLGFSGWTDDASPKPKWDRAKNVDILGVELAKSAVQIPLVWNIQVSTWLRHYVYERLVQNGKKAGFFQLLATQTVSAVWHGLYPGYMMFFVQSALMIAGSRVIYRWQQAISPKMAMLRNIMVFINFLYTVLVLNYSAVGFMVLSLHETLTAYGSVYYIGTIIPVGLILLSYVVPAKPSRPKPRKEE
Procedure: (§1) FIG. 19 is a graph depicting the inhibitory effect of Zn^2+ on AtLPCATs activity. The lca1Δ over-expressing AtLPCATs was used to asses Zn^2+ effect. The reactions contained 25 μM palmitoyl-LPC (1.35 nCi/nmol), 20 μg microsomal proteins, 0.1 M HEPES (pH 7.4), 25 μM stearyl-CoA and indicated concentration of ZnCl2.
(§2) AtLPCAT substrate specificity was determined by counting incorporation of 14C-labeled lysophosphatidylcholine or 14C-labeled palmitoyl-CoA into phosphatidylcholine. All assays were performed at least twice. […] reaction mixture contained […] microsomal protein, […] acyl-CoA and […], pH7.4. 14C-lysophosphatidylcholine (1.4 nCi/nmol) or 14C-palmityl-CoA (5.5 nCi/nmol) was used to assess fatty-CoA or lyso-lipid substrate specificity. Reaction was allowed for ten minutes at 30° C. All radiolabel chemicals for these assays were purchased from ARC, Inc.

LCA1 = target: T2, LCA1 (Saccharomyces cerevisiae, UniProt Q08548); assay: Zn^2+ / Mg^2+ effect on LPCAT activity of LCA1 (in vitro assay, microsomes of lca1Δ over-expressing LCA1); settings: for LPCAT activity (% control): 5.6 μM palmitoyl-LPC, 11.25 μM stearyl-CoA, 1.5 μg microsomal protein, pH 7.4, two minutes, mean±S.D.
T2 construct: Saccharomyces cerevisiae YOR175c ORF was PCR-amplified; made in house; host or cells: S. cerevisiae YOR175c deletion strain Y02431 (lca1Δ), pYES2.1, galactose induction; microsomal fraction
T2 sequence (Q08548 1-619): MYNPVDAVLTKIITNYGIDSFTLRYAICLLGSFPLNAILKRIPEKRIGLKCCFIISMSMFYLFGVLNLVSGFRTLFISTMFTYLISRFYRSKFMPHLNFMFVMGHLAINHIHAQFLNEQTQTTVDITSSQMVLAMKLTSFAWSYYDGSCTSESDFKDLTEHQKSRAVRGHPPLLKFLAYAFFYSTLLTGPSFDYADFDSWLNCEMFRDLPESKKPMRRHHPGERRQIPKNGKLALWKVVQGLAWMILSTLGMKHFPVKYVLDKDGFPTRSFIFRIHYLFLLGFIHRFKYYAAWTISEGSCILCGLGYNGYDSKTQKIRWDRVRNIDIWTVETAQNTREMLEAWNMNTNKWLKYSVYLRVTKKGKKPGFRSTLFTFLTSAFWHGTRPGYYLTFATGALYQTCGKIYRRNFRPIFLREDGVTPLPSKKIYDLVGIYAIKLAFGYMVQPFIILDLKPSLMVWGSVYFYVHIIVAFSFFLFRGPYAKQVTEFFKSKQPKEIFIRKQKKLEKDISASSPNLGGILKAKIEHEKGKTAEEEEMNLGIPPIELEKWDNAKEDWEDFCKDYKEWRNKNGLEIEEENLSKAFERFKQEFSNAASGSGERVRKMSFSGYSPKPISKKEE
Procedure: Microsomal preparation: Yeast strains were first grown in 15 ml of SC-Leu-His-Ura medium containing 2% glucose. Protein expression induction was carried out as described in Invitrogen manufacturer manual for yeast expression vector pYES2.1. After 24 hours of growth in SC+2% galactose+1% raffinose induction conditions, the cells were washed, first with distilled water and then with wall-breaking buffer (50 mM Tris-HCl, 1 mM EDTA, 0.6 M sorbitol, pH 7.4, 1 mM DTT). After centrifugation at 4,000 rpm (Eppendorf Centrifuge 5145C), the cells were resuspended in 1 ml wall-breaking buffer with 10 μl yeast protease cocktail (Sigma), and shaken vigorously in the presence of acid-washed glass beads (diameter 0.5 mm). The resultant homogenate was centrifuged at 12,000 rpm for ten minutes at 4° C. The decanted supernatant was further centrifuged at 100,000×g for 90-120 minutes at 4° C. The supernatant was discarded, and the pellet was suspended in homogenization buffer containing 20% glycerol and frozen at −80° C. until use. Protein concentration was measured using Bio-Rad Protein Assay Kit for final enzyme activity calculation.
In Vitro Assay of LPCAT activity: LPCAT substrate specificity was determined by measuring incorporation of [^14C] lysophosphatidylcholine or [^14C] palmitoyl-CoA into phosphatidylcholine. All assays were performed at least twice. For lysophospholipid substrate specificity assessment, 400 μl HEPES buffer contained 3 μg microsomal protein, 50 μM of lysophospholipid substrates and 112.5 μM [^14C] palmitoyl-CoA (5.5 nCi/nmol). For acyl-CoA substrate selectivity analysis, 400 μl HEPES reaction buffer (pH7.4, 0.1 M) contained 3 μg microsomal protein, 50 μM acyl-CoA and 112.5 μM [^14C] […] (1.35 nCi/nmol). Reaction was allowed for 2 minutes at 30° C. with 100 rpm shaking. The reaction products were extracted with chloroform/methanol (2/1, v/v) and separated with Merck silica G60 TLC plates. Spots corresponding to different phospholipid species products were scraped off and ^14C incorporation were scintillation counted. Different concentrations of ZnCl2 were added in to reactions for Zn^2+ inhibitory effect assay.
Results are expressed as means±S.D. The lca1Δ over-expressing LCA1 was used to assess Zn^2+ effect. The reactions contained 5.6 μM palmitoyl-LPC (1.35 nCi/nmol), 1.5 μg microsomal proteins, 0.1 M HEPES (pH 7.4), 11.25 μM stearyl-CoA and indicated concentration of ZnCl2. The reaction was stopped after two minutes by adding 2 ml of chloroform/methanol solution (2:1).

AtLPCAT2 = target: T3, AtLPCAT2 (Arabidopsis thaliana, UniProt Q9CAN8); assay: Zn^2+ sensitivity of AtLPCAT2, in vitro LPCAT assay; settings: increasing ZnCl2; 25 μM palmitoyl-LPC, 25 μM stearyl-CoA, 20 μg microsomal protein, pH 7.4
T3 construct: made in house; host or cells: S. cerevisiae YOR175c deletion strain BY02431 (lca1Δ), pYES2.1 TOPO, galactose induction; microsomal protein
T3 sequence (Q9CAN8 1-465): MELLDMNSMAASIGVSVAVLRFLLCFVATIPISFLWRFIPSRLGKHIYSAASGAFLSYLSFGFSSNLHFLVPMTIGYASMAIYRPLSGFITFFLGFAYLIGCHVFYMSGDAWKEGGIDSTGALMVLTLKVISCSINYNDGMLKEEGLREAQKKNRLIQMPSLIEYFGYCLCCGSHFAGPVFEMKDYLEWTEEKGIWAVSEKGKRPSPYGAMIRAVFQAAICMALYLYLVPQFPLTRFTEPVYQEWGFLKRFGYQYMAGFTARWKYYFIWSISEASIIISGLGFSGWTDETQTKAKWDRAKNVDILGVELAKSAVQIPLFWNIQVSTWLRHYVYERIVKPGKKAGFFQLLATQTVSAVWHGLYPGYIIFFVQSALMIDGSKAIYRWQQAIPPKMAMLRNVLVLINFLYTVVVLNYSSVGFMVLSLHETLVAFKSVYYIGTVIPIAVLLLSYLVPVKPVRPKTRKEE
Procedure: as §1, §2

[Cl-].[Cl-].[Zn+2] [ZnCl2]
AtLPCAT1 activity with Zn^2+ added (AtLPCAT1): decreased with increasing concentration
Concentration at which the maximum increase of LPCAT activity was observed (LCA1): 25 µM
LPCAT activity (% control) (LCA1; 5 μM ZnCl2): 98 ± 5.9 % control
LPCAT activity (% control) (LCA1; 10 μM ZnCl2): 136.8 ± 3.9 % control
LPCAT activity (% control) (LCA1; 25 μM ZnCl2): 149.7 ± 12.0 % control
LPCAT activity (% control) (LCA1; 0.1 mM ZnCl2): 35 ± 22.4 % control
LPCAT activity (% control) (LCA1; 20 mM ZnCl2): 6 ± 2.0 % control
Effect on LPCAT activity of LCA1 (LCA1; lower (10-25 μM) concentration): enhanced LPCAT activity
Effect on LPCAT activity of LCA1 (LCA1; range between 0.1 mM to 20 mM): significant reduction
AtLPCAT2 activity with Zn^2+ added (AtLPCAT2): decreased with increasing concentration
